# Results taken from patent EP1724268A1, “COMPOUND HAVING TGF-BETA INHIBITORY ACTIVITY AND PHARMACEUTICAL COMPOSITION CONTAINING SAME” (KIRIN BEER KABUSHIKI KAISHA, priority 2004, dated 2005).
# Read-outs that look alike come from different tables or passages of the source.
# Test system: TGFβ signal
# Test: TGFβ signal inhibitory activity, (SBE)4-Luc reporter in A549 cells (Test Examples 1A and 1B)
# Type: cell-based, human
# Conditions: Homo sapiens, A549, read-out: TGFβ inhibition rate, %
# Method in brief: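 Compounds at 3 µM and 10 µM (some 1 µM) were added with 2 ng/ml TGFβ-1 to A549 cells stably expressing an SBE-driven luciferase, then cultured 4 hr. Chemiluminescent luciferase signal gave % inhibition versus TGFβ-alone and no-TGFβ controls.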
# [1] = 3 µM, compounds of Reference Examples (Test Example 1B)
# [2] = 10 µM, compounds of Reference Examples (Test Example 1B)
# [3] = test compound 3 µM, TGFβ-1 2 ng/ml, 4 hr, Table 1A
# [4] = test compound 10 µM, TGFβ-1 2 ng/ml, 4 hr, Table 1A
# [5] = test compound 3 µM, Reference Examples, Table 1B
# [6] = test compound 10 µM, Reference Examples, Table 1B
smiles,measurement,setting,value
COc1cc2nccc(Oc3ccc(C)cc3C(=O)c3ccc(OCCCl)cc3)c2cc1OC [Compound r189],inhibition at 3 µM,[1],86%
same,inhibition at 10 µM,[2],100%
COc1cc2c(Oc3cc4ccccc4nc3C)ccnc2cc1OCCNC(=O)CC(C)(C)CC(=O)O [Compound r357],inhibition at 3 µM,[1],27%
same,inhibition at 10 µM,[2],60%
COc1cc2nccc(Oc3ccc(C)nc3-c3nccs3)c2cc1OC [r259],inhibition at 1 µM,"1 µM, compounds of Reference Examples (Test Example 1B)",100%
COc1cc2nccc(Oc3ccc(C)nc3Cc3ccccc3)c2cc1OC [r214],inhibition at 3 µM,[1],99%
same,inhibition at 10 µM,[2],100%
"Cc1cc(Oc2ccnc3cc(-c4ncccn4)ccc23)c(-c2ccccn2)nc1C [Compound 177, 5,6-Dimethyl-3-(7-pyrimidin-2-yl-quinolin-4-yloxy)-[2,2']blpyridine]",inhibition at 3 µM,[3],98%
same,inhibition at 10 µM,[4],100%
"COc1ccc(Oc2ccnc3cc(OC)c(OC)cc23)cn1 [Compound r207, 6,7-Dimethoxy-4-(6-methoxy-pyridin-3-yloxy)-quinoline]",inhibition at 3 µM,[1],77%
same,inhibition at 10 µM,[2],99%
"COc1cc2ncnc(Oc3cc(C)c(C)nc3-c3ccccn3)c2cc1OC [Compound 27, 4-(5,6-Dimethyl-[2,2']bipyridin-3-yloxy)-6,7-dimethoxy-quinazoline]",inhibition at 1 µM,"test compound 1 µM, TGFβ-1 2 ng/ml, 4 hr, Table 1A",89%
same,inhibition at 3 µM,[3],100%
COc1cc2c(Oc3cc4cccnc4nc3C)ccnc2cc1OCCCCO [Compound r405],inhibition at 3 µM,[1],92%
same,inhibition at 10 µM,[2],100%
COc1cc2c(Oc3ccc(C)cc3C(=O)c3ccccc3)ccnc2cc1OCCN1CCNCC1 [Compound r128],inhibition at 3 µM,[5],100%
same,inhibition at 10 µM,[6],100%
CCC(=O)c1ccc(OC)cc1Oc1ccnc2cc(OC)c(OC)cc12 [r44],inhibition at 3 µM,[5],97%
same,inhibition at 10 µM,[6],100%
"Cc1cc(Oc2ccnc3ccccc23)c(-c2ncccn2)nc1C [Compound 49, 4-(5,6-Dimethyl-2-pyrimidin-2-yl-pyridin-3-yloxy)-quinoline]",inhibition at 3 µM,[3],97%
same,inhibition at 10 µM,[4],100%
COc1cc2nccc(Oc3ccc(C)nc3-c3ccccc3C(C)=O)c2cc1OC [Compound r225],inhibition at 3 µM,[1],39%
same,inhibition at 10 µM,[2],78%
COc1cc2c(Oc3cc4cccnc4nc3C)ccnc2cc1OCCCl [Compound r398],inhibition at 3 µM,[1],78%
same,inhibition at 10 µM,[2],97%
"Cc1cc(Oc2ncnc3ccsc23)c(-c2ccccn2)nc1C [Compound 33, 5,6-Dimethyl-3-(thieno[3,2-d]pyrimidin-4-yloxy)-[2,2']bipyridine]",inhibition at 3 µM,[3],86%
same,inhibition at 10 µM,[4],99%
"COc1cc2nccc(Oc3cc(C)c(C)cc3C(C)=NN)c2cc1OC [Compound r193, {1-[2-(6,7-Dimethoxy-quinolin-4-yloxy)-4,5-dimethylphenyl]-ethylidene}-hydrazine]",inhibition at 3 µM,[1],74%
same,inhibition at 10 µM,[2],99%
"COc1ccc2nccc(Oc3cc(C)c(C)nc3-c3ccccn3)c2n1 [Compound 121, 8-(5,6-Dimethyl-[2,2']bipyridinyl-3-yloxy)-2-methoxy-[1,5]naphthyridine]",inhibition at 3 µM,[3],98%
same,inhibition at 10 µM,[4],100%
COc1cc2nccc(Oc3ccc(C)nc3-c3cccc(N)c3)c2cc1OC [Compound r235],inhibition at 3 µM,[1],100%
same,inhibition at 10 µM,[2],100%
COc1cc2nccc(Oc3cc4c5c(c3C=O)CCCN5CCC4)c2cc1OC [Compound r28],inhibition at 3 µM,[5],0%
same,inhibition at 10 µM,[6],53%
"COc1cc2c(Oc3cc(C)c(C)nc3-c3ccccn3)ccnc2cc1Cl [Compound 105, 3-(7-Chloro-6-methoxy-quinolin-4-yloxy)-5,6-dimethyl-[2,2']bipyridine]",inhibition at 3 µM,[3],100%
same,inhibition at 10 µM,[4],100%
"Cc1cc(Oc2ccnc3ccncc23)c(-c2ccccn2)nc1C [Compound 31, 4-(5,6-Dimethyl-[2,2']bipyridin-3-yloxy)-[1,6]naphthyridine]",inhibition at 3 µM,[3],85%
same,inhibition at 10 µM,[4],99%
COc1cc2nccc(Oc3ccc(C)cc3-c3ccccn3)c2cc1OC [r167],inhibition at 3 µM,[1],98%
same,inhibition at 10 µM,[2],100%
COc1cc2nccc(Oc3cc(C)c(C)nc3-c3cccc(C)n3)c2cc1OC [Compound r271],inhibition at 3 µM,[1],94%
same,inhibition at 10 µM,[2],100%
"CCOC(=O)c1ccccc1C(=O)c1ccnc2cc(OC)c(OC)cc12 [Compound r163, Ethyl 2-[(6,7-dimethoxy-4-quinolyl)carbonyl]benzoate]",inhibition at 3 µM,[5],3%
same,inhibition at 10 µM,[6],67%
"COc1cc2nccc(Oc3cc4cnccc4nc3-c3ccccc3)c2cc1OC [Compound 93, 3-(6,7-Dimethoxy-quinolin-4-yloxy)-2-phenyl-[1,6]naphthyridine]",inhibition at 3 µM,[3],97%
same,inhibition at 10 µM,[4],100%
COc1cc2c(Oc3cc(C)c(C)nc3-c3nc(C)c(C)s3)ccnc2cc1OCC(O)CO (stereo not shown) [Compound r464],inhibition at 3 µM,[1],97%
same,inhibition at 10 µM,[2],100%
"Cc1cc(Oc2ccnc3ccc(Cl)cc23)c(-c2ccccn2)nc1C [Compound 156, 3-(6-Chloro-quinolin-4-yloxy)-5,6-dimethyl-[2,2']bipyridine]",inhibition at 3 µM,[3],100%
same,inhibition at 10 µM,[4],100%
CCOC(=O)c1cc(Br)ccc1Oc1ccnc2cc(OC)c(OC)cc12 [Compound r85],inhibition at 3 µM,[5],87%
same,inhibition at 10 µM,[6],100%
CCc1nc2ccncc2cc1Oc1ccnc2cc(OC)c(OC)cc12 [r424],inhibition at 3 µM,[1],28%
same,inhibition at 10 µM,[2],79%
COc1cc2c(Oc3cc(C)c(C)nc3-c3cccnc3)ccnc2cc1OCCO [Compound r346],inhibition at 3 µM,[1],99%
COc1ccc(Oc2ccnc3cc(OC)c(OC)cc23)c(C(=O)c2ccccc2)c1 [r74],inhibition at 3 µM,[5],27%
same,inhibition at 10 µM,[6],84%
CCC(=O)c1cc(C(C)(C)C)ccc1Oc1ccnc2cc(OC)c(OC)cc12 [Compound r49],inhibition at 3 µM,[5],0%
same,inhibition at 10 µM,[6],62%
COc1cc2nccc(Oc3cc4cccnc4nc3-c3ccccn3)c2cc1OC [r421],inhibition at 3 µM,[1],94%
same,inhibition at 10 µM,[2],100%
"Cc1cc(Oc2ccnc3ccc(-c4cccn4C(=O)OC(C)(C)C)cc23)c(-c2ccccn2)nc1C [Compound 167, 2-[4-(5,6-Dimethyl-[2,2']bipyridinyl-3-yloxy)-quinolin-6-yl]-pyrrole-1-carboxylate tert-butyl ester]",inhibition at 3 µM,[3],35%
same,inhibition at 10 µM,[4],85%
COc1cc2c(Oc3cc(C)c(C)cc3C(C)=O)ccnc2cc1O [Compound r314],inhibition at 3 µM,[1],50%
same,inhibition at 10 µM,[2],89%
COc1ccc(Oc2ccnc3cc(OCCCN4CCOCC4)c(OC)cc23)c(C(C)=O)c1 [r122],inhibition at 3 µM,[5],100%
same,inhibition at 10 µM,[6],100%
"COc1cc2nccc(Oc3cc(C)c(C)nc3-c3ccccn3)c2cc1Br [Compound 133, 3-(6-Bromo-7-methoxy-quinolin-4-yloxy)-5,6-dimethyl-[2,2']bip yridine]",inhibition at 3 µM,[3],99%
same,inhibition at 10 µM,[4],100%
CCOC(=O)c1ccccc1Oc1ccnc2cc(OC)c(OC)cc12 [Compound r80],inhibition at 3 µM,[5],62%
same,inhibition at 10 µM,[6],95%
COc1cc2c(Oc3cc4cccnc4nc3C)ccnc2cc1OCCO [Compound r400],inhibition at 3 µM,[1],82%
same,inhibition at 10 µM,[2],100%
"CCc1ccc(Oc2ccnc3ccc(OCCOC(=O)[C@@H](N)C(C)C)cc23)c(-c2ncccn2)n1 [Compound 208, 2-[4-(6-Ethyl-2-pyrimidin-2-yl-pyridin-3-yloxy)-quinolin-6-yloxy]-ethyl (S)-2-amino-3-methyl-butanoate]",inhibition at 3 µM,[3],75%
"COc1cc2c(Oc3cc4ccccc4nc3C)ccnc2cc1NCCN1CCOCC1 [Compound r410, [6-Methoxy-4-(2-methyl-quinolin-3-yloxy)-quinolin-7-yl]-(2-morpholin-4-yl-ethyl)-amine]",inhibition at 3 µM,[1],91%
same,inhibition at 10 µM,[2],100%
CCN(CC)CCOc1cc2nccc(Oc3ccc(C)cc3C(=O)c3ccccc3)c2cc1OC [Compound r125],inhibition at 3 µM,[5],98%
same,inhibition at 10 µM,[6],100%
"Cc1ccc(Oc2ccnc3ccc(OCC(C)(C)CO)cc23)c(-c2ncccn2)n1 [Compound 215, 2,2-Dimethyl-3-[4-(6-methyl-2-pyrimidin-2-yl-pyridin-3-yloxy)-quinolin-6-yloxy]-propan-1-ol]",inhibition at 3 µM,[3],79%
COc1cc2c(Oc3cc4ccccc4nc3C)ccnc2cc1OCC(CO)CO [Compound r387],inhibition at 3 µM,[1],99%
same,inhibition at 10 µM,[2],100%
CCCOc1ccc(Oc2ccnc3cc(OC)c(OC)cc23)c(C(C)=O)c1 [Compound r179],inhibition at 3 µM,[1],18%
same,inhibition at 10 µM,[2],68%
CCCCc1ccc(-c2nc(C)ccc2Oc2ccnc3cc(OC)c(OC)cc23)cc1 [Compound r244],inhibition at 3 µM,[1],-3%
same,inhibition at 10 µM,[2],63%
COc1cc2c(Oc3cc4ccccc4nc3C)ccnc2cc1OCCn1ccnc1 [Compound r368],inhibition at 3 µM,[1],100%
same,inhibition at 10 µM,[2],100%
COc1cc2c(Oc3cc(C)c(C)nc3-c3ccccn3)ccnc2cc1OCC(CO)CO [Compound r343],inhibition at 3 µM,[1],93%
CCCCC(O)c1cc(C)ccc1Oc1ccnc2cc(OC)c(OC)cc12 (stereo not shown) [r10],inhibition at 3 µM,[5],38%
same,inhibition at 10 µM,[6],87%
COc1cc2c(Oc3cc(C)c(C)nc3-c3ccc(C)cn3)ccnc2cc1OCCO [Compound r459],inhibition at 3 µM,[1],98%
COc1cc2c(Oc3ccc(C)cc3C(=O)c3ccccc3)ccnc2cc1OCC(O)CN1CCOCC1 (stereo not shown) [Compound r159],inhibition at 3 µM,[5],98%
same,inhibition at 10 µM,[6],100%
